The term melting point denotes the temperature of the solid-liquid transition.

`COc1cc2c(c3c1OC(C)(C)C3)C(c1cccc(C(=O)N[C@H]3CNC3=O)c1)=NC(C)(C)C2` gave a melting point of 154 to 157 °C. With `O=C(O)CC(NS(=O)(=O)c1ccc2ccccc2c1)c1ccccc1O` (stereo unspecified) the figure was 190 to 200 °C; with `O=C(O)CNC(=O)c1ccccc1NC(=O)c1ccccc1O`, 222 to 224 °C. The same measure for `CCOC(=O)C=Cc1cc(C=CC(=O)OC(C)(C)C)cc(Oc2cccnc2)c1`: 116 to 118 °C; for `CC(C)(C)OC(=O)CCCCCCCCCC[N+](=O)[O-]`: 39 to 42 °C; for `CN1C(C(=O)Nc2cc(Cl)ncn2)=C(O)c2ccc3ccccc3c2S1(=O)=O`: 263 °C. With `CCCSc1ncc(C(C)C(=O)O)n1Cc1ccccc1Cl` (stereo unspecified) the figure was 170 to 172 °C; with `COc1cc(C)c(C(O)c2c(Cl)cncc2C(F)(F)F)c(OC)c1OC` (stereo unspecified), 102 to 105 °C.

Take `COc1cc(NC(=O)Nc2ccc(N3CCN(C(=O)Nc4cc(OCCO)ccc4Cl)CC3)cc2)cc(OC)c1`: the melting point lay within 191 to 192 °C. The same measure for `Nc1ncc(-c2ccc3c(c2)CCC(NCC(F)(F)F)CC3)c(N)n1` (stereo unspecified): 154 to 156 °C. The same measure for `COC(=O)Cc1c(-c2ccc3c(c2)OCO3)c2ccccc2n(Cc2ccccc2OC)c1=O`: 71 to 72 °C; for `Cc1ccc(S(=O)(=O)Nc2cc3c(c(C(=O)O)c2)NC(c2ccccc2)CC3)cc1` (stereo unspecified): 219 to 220 °C. With `CCCOCN(C(=O)CCl)c1c(OC)cccc1OC` the figure was 83 to 85 °C; with `CCCc1nc(I)c(C=O)[nH]1`, 141 to 142 °C. `Cc1c(-c2ccc(F)cc2)oc2c(-c3ccc(F)cc3)c(-c3ccc(S(C)(=O)=O)cc3)nn12` returned a melting point of 257 to 259 °C. The same measure for `CN(CCOc1ccc(C=C2SC(=O)NC2=O)cc1)C(=O)c1ccccc1`: 178 to 180 °C; for `CCOC(=O)n1nc(-c2cc(C(C)(C)C)c(O)c(C(C)(C)C)c2)c2cccnc21`: 161 to 163 °C; for `COc1ccc(Cn2c(=O)c3c(c4ccccc42)OC(C)(C)[C@@H](O)[C@@H]3NC(=O)CCCCl)cc1` (relative stereo): 218 to 219 °C. The compound `CC(C)(C)OC(=O)NCCS(C)(=O)=O` displayed a melting point of 85 to 86 °C. The same measure for `c1nnc(N2CCN(Cc3ccc4c(c3)OCO4)CC2)s1`: 111 to 112 °C.

On to `Nc1ccsc1C(=O)NCC1CCN(C[C@H]2COc3ccc(Cl)cc3O2)CC1`, for which the melting point lay in the range of 200 to 202 °C.

The compound `O=C(O)CCCCn1ccnc1` returned a melting point of 157 to 158 °C.

In turn, `COC(=O)c1cc(C(F)(F)F)cc(OCc2ccccc2)c1OCc1ccccc1` yielded a melting point of 78 to 79 °C. With `COc1cc(COc2nn(C)cc2CO)ccc1OCc1nc(-c2ccco2)oc1C` the figure was 132 to 133 °C; with `CCN(CC)c1ccc(-c2cc(-c3ccc(C(=O)O)cc3)ccc2CCCNC(C)C)cc1C(C)(C)C`, 253 °C.

For `Cc1cccc2c(=O)n(C3CCC(=O)NC3=O)c(C)nc12` (stereo unspecified), the melting point lay within 296 to 298 °C.

`CN(C)c1ccc(-c2cc(=O)c(C(=O)O)cn2-c2ccc(F)c(N)c2)cc1`: the melting point was 198 to 201 °C. Regarding `CCS(=O)(=O)Nc1cc(-n2ncc(N(C)C)c(Cl)c2=O)c(F)cc1C#N`, the melting point worked out at 206 °C. In turn, `COc1c(C2CCN(CCCCNC(=O)c3ccc(-c4ccc(Cl)cc4)cc3)CC2)ccc2ccccc12` returned a melting point of 197 °C.

`O=C1C=C(C2CCCCNC2=O)CCC1` (stereo unspecified) gave a melting point of 159 to 165 °C.

Compound `N#CC1(N)CCC2Cc3ccccc3CC2C1` (stereo unspecified) displayed a melting point of 128 °C.

On to `O=Cc1ccc(-c2ccc(-c3ccco3)o2)o1`, for which the melting point was in the range of 75 to 77 °C. With `Cc1ccc(-n2c(=O)n(OCc3ccccc3)c(=O)c3cc(F)c(Cl)nc32)cc1` the figure was 218 to 219 °C; with `C=Cc1cccc(C(=O)NC(Nc2c(Nc3cccnc3)c(=O)c2=O)C(C)(C)C)c1` (stereo unspecified), 209 to 210 °C. With `CC(=O)c1cc(-c2ccncc2)sc1Oc1ccccc1F` the figure was 93 to 96 °C; with `CC(C)C(NC(=O)c1ccc(C(=O)NCCCC(=O)O)cc1)C(=O)N1CCCC1C(=O)NC(C(=O)C(F)(F)F)C(C)C` (mixture of isomers), 84 to 86 °C.

As for `COc1cc2c3c(cccc3c1)C(=O)N(O)C2=O`, the melting point is 236 to 239 °C.

`CCCn1c(=O)n(CCC)c2cc3c(N4CCN(C(=O)Nc5ccc(Oc6ccccc6)cc5)CC4)ncnc3cc21` showed a melting point of 179 to 180 °C.

With `COc1ccc(NC(=S)Nc2ccc(NNC=O)c(OC)c2)cc1`, the melting point lay within 160 to 162 °C. In turn, `CCCC(=O)C1=C(O)CC2(CCC(C)CC2)OC1=O` (stereo unspecified) returned a melting point of 60 to 63 °C. The same measure for `CC1(C)C(=O)Nc2cc(-c3nc4ccccc4[nH]3)ccc21`: 326 to 330 °C; for `CCCc1nn(C)c2c(=O)n(CCCc3ccc(OC(C)(C)C(=O)O)cc3)c(C)nc12`: 104 to 106 °C; for `CC1(C)C(=O)C(C)(C)c2cc3[nH]c(SCc4ccccn4)nc3cc21`: 167 to 168 °C. With `Clc1ccc(-c2c(CC3NCCS3)cnn2-c2ccccc2)cc1` (stereo unspecified) the figure was 170 to 172 °C; with `COc1ccnc(CSc2nc3cscc3n2CO)c1`, 125 to 127 °C; with `C=Cc1c(N)nc(-c2ccc(Cl)c(F)c2F)nc1C(=O)OC`, 130 to 132 °C. With `c1ccc(Oc2ccc(OCCCn3ccnc3)cc2)cc1` the figure was 54.5 to 55.5 °C.

In turn, `COc1ccc(-c2ccncc2OC2SCC(OC(C)=O)C(OC(C)=O)C2OC(C)=O)cc1` (stereo unspecified) gave a melting point of 193 °C. The same measure for `CCCC1COc2cc(C3COc4cc(C#N)c(F)cc4C3)c(F)cc2C1` (stereo unspecified): 122 °C; for `Cc1cc2c(c(OCC(=O)c3ccc(C(C)C)cc3)c1)CCC2`: 68 to 69 °C. With `COc1ccc2c(c1)OCC(n1ccnc1)C2=O` (stereo unspecified) the figure was 151 to 155 °C; with `COc1ccc(-c2cc(=O)c3ccc(OCC(O)CNC(C)C)cc3o2)cc1OC` (stereo unspecified), 144 to 145 °C; with `O=C(O)CCCCCCCNS(=O)(=O)c1ccc(Cl)cc1`, 122 to 124 °C. `O=C(C(=Cc1ccccc1)c1ccccc1)c1ccc(O)cc1`: the melting point was in the range of 186 to 190 °C.

For `NC(=O)Cc1cc(Oc2ccc3c(ccn3C(=O)Nc3ccc(N4CCNCC4)c(C(F)(F)F)c3)c2)ncn1`, the melting point fell in the range of 149 to 152 °C.

Consider `N#Cc1cc(CO)nc(C(=O)Nc2ccc(F)cn2)c1`, for which the melting point is 232 °C. The same measure for `CCOc1cc(CN2CCN(c3ccc(C(=O)NC4CC4)cc3C)CC2)cc2c1OC(C)C(=O)N2` (stereo unspecified): 223 to 224 °C. The same measure for `CSC(Nc1cc(C(F)(F)F)cc(C(F)(F)F)c1)=C(C#N)S(C)(=O)=O`: 129 to 131 °C; for `Cc1cccc(C(NCC(=O)Nc2c(C(C)C)cccc2C(C)C)c2ccccc2)c1` (stereo unspecified): 119 to 120 °C.

Turning to `O=C(Nc1ccc2c(c1)CCNO2)c1cc2cc(F)ccc2n1Cc1cccc(F)c1`, the melting point lay within 216 to 217 °C. With `Cn1nc(-c2c(Nc3ccccc3)nc(N)nc2-c2ccccc2)ccc1=O` the figure was 252 to 254 °C.

Values taken from a melting point compilation (Tetko et al.; mined from patent text by program, amines drawn as free bases though some values may be those of a salt).
